Measured values from US20120283293A1, “Methods of neuroprotection involving Prostaglandin E2 EP4 (PGE2 EP4) receptor activation” (The Board of Trustees of the Leland Stanford Junior …, priority 2011, published 2012).

How the values were obtained:
[1] = test system: BV-2 cells; assay: qPCR of pro-inflammatory gene expression in LPS-stimulated BV-2 cells; type: cell-based, murine; details: LPS 10 ng/ml, 6 h
Experimental: Murine microglial-like BV-2 cells were grown in DMEM medium supplemented with 10% heat-inactivated fetal bovine serum (HyClone, Logan, Utah) and 100 units/ml each of penicillin and streptomycin and were maintained at 37° C. in a humidified atmosphere containing 5% CO2. For primary microglial cultures, cerebral cortices were isolated from postnatal day 2 Sprague-Dawley rat pups obtained from Charles River Laboratories International, Inc. (Davis, Calif.). Tissues were minced and incubated in 0.25% trypsin-EDTA, mechanically triturated in DMEM/F-12 with 10% FBS, and plated on poly-L-lysine-coated […]. Cultures were maintained for 14 days with media changes every 4 days. […]
qPCR was carried out as previously described (Liang et al., 2008). […] The mRNA level for each target gene was quantified by SYBR Green-based qPCR using the QuantiTect SYBR Green PCR kit (Qiagen). […] Quantification was performed using the standard curve method. […]
Inflammatory stimuli such as LPS can activate microglia through the CD14/TLR4 receptor complex and induce the expression of pro-inflammatory enzymes and cytokines (Fassbender et al., 2004; Walter et al., 2007). […] BV-2 cells were treated with LPS (10 ng/ml) in the presence or absence of the selective EP4 agonist AE1-329 (1 μM) for 6 h, and pro-inflammatory gene expression was measured using qPCR (see FIG. 2). […]

[2] = test system: primary human monocytes; assay: TNF-α and IL-6 ELISA in LPS-stimulated primary human monocytes; type: cell-based; details: LPS 100 ng/ml, AE1-329 100 nM, 6 hours
Experimental: Human monocyte derived macrophages were purchased from AllCells (Catalog #PB-MDM-001F: Frozen normal peripheral blood monocyte derived macrophages) and plated at a density of 23,000 cells per well in a 96 well plate. Two dilutions (1:5 and 1:10) were tested using anti-human IL6 and anti-human TNFα ELISA to measure concentrations of these two cytokines in pg/ml after 6 hours of stimulation with either vehicle alone, AE1-329 (100 nM), LPS, and LPS plus AE1-329 (100 nM).
Primary human monocytes were stimulated with either vehicle (PBS) alone, AE1-329 (100 nM), LPS (100 ng/ml), and LPS (100 ng/ml) plus AE1-329 (100 nM). Two dilutions (1:5 and 1:10) were tested using anti-human IL6 and anti-human TNF-α ELISA to measure concentrations of these two cytokines in pg/ml after 6 hours of stimulation.

COCc1ccccc1CC[C@H](O)/C=C/[C@H]1[C@H](O)CC(=O)[C@@H]1SCCCSCC(=O)O [AE1-329]
LPS-induced mRNA of COX-2, iNOS, gp91phox, TNF-α, IL-1β and IL-6 ([1]; AE1-329 1 μM, qPCR): significantly blunted the induction of these genes
IL-10 mRNA expression ([1]; co-stimulation with AE1-329 1 μM): significantly induced expression
LPS-induced increase in IL-6 levels (ELISA) [2]: significantly reduced
LPS-induced increase in TNF-α levels (ELISA) [2]: entirely reversed
